Data published in US12172983B2, “EGFR inhibitors” (Blueprint Medicines Corporation, priority 2019, dated 2024).
Where two headings read alike, the source gives them in different places.

Key:
EGFR (L858R T790M C797S) = molecular target: T1, EGFR (L858R T790M C797S) (Homo sapiens, UniProt P00533, C797S/L858R/T790M); assay: Biochemical EGFR inhibition assay (Caliper mobility shift), EGFR LRTMCS mutant; details: inhibitory activity against EGFR LRTMCS mutant; apparent IC50; read-out: Ext Enz LRTMCS
T1 construct: purchased SignalChem E10-122VG
Method: Reactions proceeded until between 10% to 20% total peptides were phosphorylated at room temperature (25° C.) and were terminated with 35 mM 2,2′,2″,2′″-(ethane-1,2-diyldinitrilo)tetraacetic acid (EDTA). Product was detected using the Caliper mobility shift detection method where the phosphorylated peptide (product) and substrate were electrophoretically separated and measured. Percent activity was plotted against log concentration of compound and points to generate an apparent IC50.

[1] = tested on: phosphorylation of EGFR (Tyr1068) in NCI-H1975 cell line that harbors the EGFR L858R T790M mutations; assay: NCI-H1975 pEGFR AlphaLISA assay; assay type: cell-based; details: 4-5 hours incubation, read-out: Ext pEGFR H1975
Method: Inhibitory effects of the compounds of the disclosure were evaluated in cellular assays that measure level of intracellular phosphorylation of EGFR in NCI-H1975 cell line that harbors the EGFR L858R T790M mutations (ATCC, CRL-5908) using AlphaLISA sureFire ultra p-EGFR (Tyr1068) assay kit (PerkinElmer, ALSU-PEGFR-A50K). The NCI-H1975 cells were seeded at 12.5K/well in 22 μL into 384 well opti plate (PerkinElmer, 6007299) and adhering overnight at 37 C/5% CO2. On the next day, the test compounds and DMSO control were added into H1975 cell plate followed by incubation at 37 C/5% CO2 for 4-5 hours. The cells were then spin down in the 384-well plate and lysed with 10 μL of 1×AlphaLISA lysis buffer followed by shaking at 600 rpm for 10 minutes at room temperature. After that, 5 μL of an acceptor bead mix was added to each well followed by incubation at room temperature for 1.5-2 h in dark. Then 5 μL of a donor bead mix was added to each well followed by overnight incubation at room temperature in dark. On the next day, the plate was read at a compatible plate reader to obtain pEGFR signal. Percent of pEGFR inhibition was plotted against log concentration of compounds to generate IC50 values.

[2] = Homo sapiens, NCI-H1975, inhibition of phosphorylation of mutant EGFR in NCI-H1975 cells
[3] = inhibition of phosphorylation of mutant EGFR in NCI-H1975 cells

T1 sequence (P00533 25-1210 T790M/C797S/L858R): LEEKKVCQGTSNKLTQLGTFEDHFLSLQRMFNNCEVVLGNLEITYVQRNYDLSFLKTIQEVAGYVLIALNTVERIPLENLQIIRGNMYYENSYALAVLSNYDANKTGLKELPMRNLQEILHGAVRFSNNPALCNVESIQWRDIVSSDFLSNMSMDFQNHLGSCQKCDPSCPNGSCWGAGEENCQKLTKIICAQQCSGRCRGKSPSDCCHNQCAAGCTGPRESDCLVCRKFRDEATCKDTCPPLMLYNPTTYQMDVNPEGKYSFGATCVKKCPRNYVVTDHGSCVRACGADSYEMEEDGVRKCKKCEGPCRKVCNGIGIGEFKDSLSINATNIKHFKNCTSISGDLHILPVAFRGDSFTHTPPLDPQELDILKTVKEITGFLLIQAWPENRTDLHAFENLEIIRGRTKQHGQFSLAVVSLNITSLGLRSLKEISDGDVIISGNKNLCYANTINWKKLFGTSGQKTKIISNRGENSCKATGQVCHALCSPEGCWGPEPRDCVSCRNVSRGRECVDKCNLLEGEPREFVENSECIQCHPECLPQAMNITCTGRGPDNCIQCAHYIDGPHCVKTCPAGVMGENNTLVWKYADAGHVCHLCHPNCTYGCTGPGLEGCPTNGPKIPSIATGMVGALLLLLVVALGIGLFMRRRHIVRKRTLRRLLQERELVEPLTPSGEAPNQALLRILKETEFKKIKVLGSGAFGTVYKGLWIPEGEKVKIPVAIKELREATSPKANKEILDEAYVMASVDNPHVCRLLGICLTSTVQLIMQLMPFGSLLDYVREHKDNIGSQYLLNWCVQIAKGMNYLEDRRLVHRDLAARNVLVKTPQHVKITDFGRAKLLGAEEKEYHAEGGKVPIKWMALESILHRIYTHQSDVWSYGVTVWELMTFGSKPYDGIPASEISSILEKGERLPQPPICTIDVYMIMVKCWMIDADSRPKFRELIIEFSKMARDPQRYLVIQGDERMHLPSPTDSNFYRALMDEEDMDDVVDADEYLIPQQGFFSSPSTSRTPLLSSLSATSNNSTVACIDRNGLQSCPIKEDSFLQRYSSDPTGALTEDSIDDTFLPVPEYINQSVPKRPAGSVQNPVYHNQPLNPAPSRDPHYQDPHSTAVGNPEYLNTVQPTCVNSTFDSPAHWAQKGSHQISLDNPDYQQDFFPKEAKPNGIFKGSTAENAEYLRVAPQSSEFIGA

Structure (SMILES) | IC50 (EGFR (L858R T790M C797S)) [nM] | IC50 [1, 2] [nM] | IC50 [1, 3] [nM]
COCCO[C@H]1CCN(c2nccc(Nc3cc4c(C(C)C)ccc(N5CC(CS(C)(=O)=O)C5)c4cn3)n2)C[C@H]1O (racemic) [Compound 226, (3R,4S)-1-[4-[[5-isopropyl-8-[3-(methylsulfonylmethyl)azetidin-1-yl]-3-isoquinolyl]amino]pyrimidin-2-yl]-4-(2-methoxyethoxy)piperidin-3-ol and (3S,4R)-1-[4-[[5-isopropyl-8-[3-(methylsulfonylmethyl)azetidin-1-yl]-3-isoquinolyl]amino]pyrimidin-2-yl]-4-(2-methoxyethoxy)piperidin-3-ol] | 30.1 to 100 | 30.1 to 50 | –
COCCO[C@@H]1CCN(c2nccc(Nc3cc4c(C(C)C)ccc(N5CC(CS(C)(=O)=O)C5)c4cn3)n2)C[C@H]1O (racemic) [Compound 227, (3S,4S)-1-[4-[[5-isopropyl-8-[3-(methylsulfonylmethyl)azetidin-1-yl]-3-isoquinolyl]amino]pyrimidin-2-yl]-4-(2-methoxyethoxy)piperidin-3-ol or (3R,4R)-1-[4-[[5-isopropyl-8-[3-(methylsulfonylmethyl)azetidin-1-yl]-3-isoquinolyl]amino]pyrimidin-2-yl]-4-(2-methoxyethoxy)piperidin-3-ol] | 20.1 to 30 | 30.1 to 50 | –
CC(C)c1ccc(N2CC(CS(C)(=O)=O)C2)c2cnc(Nc3ccnc(N4CC[C@H](O)[C@H](C)C4)n3)cc12 (single isomer, unassigned) [Compound 19, (3S,4R)-1-[4-({8-[3-(methanesulfonylmethyl)azetidin-1-yl]-5-(propan-2-yl)isoquinolin-3-yl}amino)pyrimidin-2-yl]-3-methylpiperidin-4-ol or (3R,4S)-1-[4-({8-1,3-(methanesulfonylmethyl)azetidin-1-yl]-5-(propan-2-yl)isoquinolin-3-yl}amino)pyrimidin-2-yl]-3-methylpiperidin-4-ol] | 15.1 to 20 | – | 10.1 to 20
CC(C)c1ccc(N2CC(CS(C)(=O)=O)C2)c2cnc(Nc3ccnc(N4CC[C@H](O)[C@H](C)C4)n3)cc12 (single isomer, unassigned) [Compound 20, (3R,4S)-1-[4-({8-[3-(methanesulfonylmethyl)azetidin-1-yl]-5-(propan-2-yl)isoquinolin-3-yl}amino)pyrimidin-2-yl]-3-methylpiperidin-4-ol or (3S,4R)-1-[4-({8-[3-(methanesulfonylmethyl)azetidin-1-yl]-5-(propan-2-yl)isoquinolin-3-yl}amino)pyrimidin-2-yl]-3-methylpiperidin-4-ol] | 15.1 to 20 | – | 30.1 to 50
CC(C)c1ccc(N2CC(CS(C)(=O)=O)C2)c2cnc(Nc3ccnc(N4CC[C@@H](F)[C@H](O)C4)n3)cc12 (single isomer, unassigned) [Compound 24, (3S,4S)-4-fluoro-1-[4-({8-[3-(methanesulfonylmethyl)azetidin-1-yl]-5-(propan-2-yl)isoquinolin-3-yl}amino)pyrimidin-2-yl]piperidin-3-ol or (3R,4R)-4-fluoro-1-[4-({8-[3-(methanesulfonylmethyl)azetidin-1-yl]-5-(propan-2-yl)isoquinolin-3-yl}amino)pyrimidin-2-yl]piperidin-3-ol] | ≤ 15 | 20.1 to 30 | –
CCS(=O)(=O)CC1CN(c2ccc(C)c3cc(Nc4ccnc(N5CC[C@@H](O)[C@@](C)(F)C5)n4)ncc23)C1 (single isomer, unassigned) [Compound 25] | ≤ 15 | 30.1 to 50 | –
CC(C)c1ccc(N2CC(CS(C)(=O)=O)C2)c2cnc(Nc3ccnc(N4CC[C@@H](F)[C@@H](O)C4)n3)cc12 (single isomer, unassigned) [Compound 26, (3R,4S)-4-fluoro-1-[4-({8-[3-(methanesulfonylmethyl)azetidin-1-yl]-5-(propan-2-yl)isoquinolin-3-yl}amino)pyrimidin-2-yl]piperidin-3-ol or (3S,4R)-4-fluoro-1-[4-({8-[3-(methanesulfonylmethyl)azetidin-1-yl]-5-(propan-2-yl)isoquinolin-3-yl}amino)pyrimidin-2-yl]piperidin-3-ol] | ≤ 15 | ≤ 10 | –
CCS(=O)(=O)CC1CN(c2cccc3cc(Nc4ccnc(N5C[C@H](F)[C@H](O)C(C)(C)C5)n4)ncc23)C1 (single isomer, unassigned) [Compound 27, (4S,5R)-1-{4-[(8-{3-[(ethanesulfonyl)methyl]azetidin-1-yl}isoquinolin-3-yl)amino]pyrimidin-2-yl}-5-fluoro-3,3-dimethylpiperidin-4-ol or (4R,5S)-1-{4-[(8-{3-[(ethanesulfonyl)methyl]azetidin-1-yl}isoquinolin-3-yl)amino]pyrimidin-2-yl}-5-fluoro-3,3-dimethylpiperidin-4-ol] | ≤ 15 | 10.1 to 20 | –

More lines, now with the values ahead:

IC50 (EGFR (L858R T790M C797S)) [nM] | IC50 [1, 2] [nM] | IC50 [1, 3] [nM] | Structure (SMILES)
≤ 15 | 20.1 to 30 | – | CC1(C)CN(c2nccc(Nc3cc4ccnc(N5CC(CS(C)(=O)=O)C5)c4cn3)n2)C[C@@H](F)[C@H]1O (single isomer, unassigned) [Compound 6, (4S,5R)-5-fluoro-1-[4-({8-[3-(methanesulfonylmethyl)azetidin-1-yl]-2,7-naphthyridin-3-yl}amino)pyrimidin-2-yl]-3,3-dimethylpiperidin-4-ol or (4R,5S)-5-fluoro-1-[4-({8-[3-(methanesulfonylmethyl)azetidin-1-yl]-2,7-naphthyridin-3-yl}amino)pyrimidin-2-yl]-3,3-dimethylpiperidin-4-ol]
≤ 15 | – | 30.1 to 50 | CC(C)c1cnc(N2CC(CS(C)(=O)=O)C2)c2cnc(Nc3ccnc(N4C[C@H](F)[C@@H](F)C4)n3)cc12 (single isomer, unassigned) [Compound 8, N-{2-[(3S,4S)-3,4-difluoropyrrolidin-1-yl]pyrimidin-4-yl}-8-[3-(methanesulfonylmethyl)azetidin-1-yl]-5-(propan-2-yl)-2,7-naphthyridin-3-amine or N-{2-[(3R,4R)-3,4-difluoropyrrolidin-1-yl]pyrimidin-4-yl}-8-[3-(methanesulfonylmethyl)azetidin-1-yl]-5-(propan-2-yl)-2,7-naphthyridin-3-amine]
≤ 15 | – | 10.1 to 20 | CC(C)c1cnc(N2CC(CS(C)(=O)=O)C2)c2cnc(Nc3ccnc(N4C[C@H](F)[C@@H](F)C4)n3)cc12 (single isomer, unassigned) [Compound 9, N-{2-[(3R,4R)-3,4-difluoropyrrolidin-1-yl]pyrimidin-4-yl}-8-[3-(methanesulfonylmethyl)azetidin-1-yl]-5-(propan-2-yl)-2,7-naphthyridin-3-amine or N-{2-[(3S,4S)-3,4-difluoropyrrolidin-1-yl]pyrimidin-4-yl}-8-[3-(methanesulfonylmethyl)azetidin-1-yl]-5-(propan-2-yl)-2,7-naphthyridin-3-amine]
≤ 15 | 30.1 to 50 | – | CC(C)c1ccc(N2CC(CS(C)(=O)=O)C2)c2cnc(Nc3ccnc(N4C[C@H]5C[C@@H]4C[C@H]5O)n3)cc12 (single isomer, unassigned) [Compound 11, (1R,4R,5R)-2-[4-({8-[3-(methanesulfonylmethyl)azetidin-1-yl]-5-(propan-2-yl)isoquinolin-3-yl}amino)pyrimidin-2-yl]-2-azabicyclo[2.2.1]heptan-5-ol or (1S,4S,5S)-2-[4-({8-[3-(methanesulfonylmethyl)azetidin-1-yl]-5-(propan-2-yl)isoquinolin-3-yl}amino)pyrimidin-2-yl]-2-azabicyclo[2.2.1]heptan-5-ol]
≤ 15 | 30.1 to 50 | – | COC1CCN(c2nccc(Nc3cc4c(C(C)C)ccc(N5CC(CS(C)(=N)=O)C5)c4cn3)n2)CC1 (single isomer, unassigned) [Compound 15, (S)-imino((1-(5-isopropyl-3-((2-(4-methoxypiperidin-1-yl)pyrimidin-4-yl)amino)isoquinolin-8-yl)azetidin-3-yl)methyl)(methyl)-λ^6-sulfanone or (R)-imino((1-(5-isopropyl-3-((2-(4-methoxypiperidin-1-yl)pyrimidin-4-yl)amino)isoquinolin-8-yl)azetidin-3-yl)methyl)(methyl)-λ^6-sulfanone]
≤ 15 | ≤ 10 | – | CC(C)c1ccc(N2CC(CS(C)(=O)=O)C2)c2cnc(Nc3ccnc(N4CC[C@H](O)[C@@H](C)C4)n3)cc12 (single isomer, unassigned) [Compound 18, (3S,4S)-1-[4-({8-[3-(methanesulfonylmethyl)azetidin-1-yl]-5-(propan-2-yl)isoquinolin-3-yl}amino)pyrimidin-2-yl]-3-methylpiperidin-4-ol or (3R,4R)-1-[4-({8-[3-(methanesulfonylmethyl)azetidin-1-yl]-5-(propan-2-yl)isoquinolin-3-yl}amino)pyrimidin-2-yl]-3-methylpiperidin-4-ol]
